This note sets out measurements from patent publication US11760761B2, “Methods and compositions for targeting PD-L1” (Aligos Therapeutics, Inc., priority 2020, dated 2023).

One assay concerns the target PDL1/PD1 (Homo sapiens (Human), UniProt Q9NZQ7). In words: PDL1/PD1 Binding Assay. The note with it: PDL1-6xHis 0.3 nM, PD1-Fc-Avi-Biotin 2.5 nM, Acceptor/Donor beads; read-out: PD-1/PD-L1 PPI IC50. The procedure: Compounds to be tested were serially diluted in DMSO, and further diluted in assay buffer (25 mM Hepes pH 7.4, 150 mM NaCl, 0.005% Tween 20, BSA 0.01%). Diluted compounds were added to the wells with final concentration of DMSO at 1%. PDL1-6×His protein was added to the wells, mixed well with compound. The plates were incubated for 30 min at room temperature. PD1-Fc-Avi-Biotin protein was added to the wells. Final concentration of PDL1 and PD1 protein is 0.3 nM and 2.5 nM, respectively. After a binding time of 30 min at room temperature, Anti-6×His Acceptor beads (final concentration 20 ug/ml) were added to the wells, and the incubation continued for 1 h. Streptavidin Donor beads (final concentration 20 ug/mL) were added at reduced light. The plates were sealed with foil and incubated in the dark for additional 1 h or overnight before reading on an Envision reader. The IC50 values were determined by fitting the curves using a four-parameter equation in Graphpad Prism 8.

A further assay deals with PD-1/PD-L1 interaction (Homo sapiens (Human), UniProt Q9NZQ7). The assay is described as follows: PD-1/PD-L1 NFAT Reporter Assay (Jurkat T cells / PD-L1 expressing CHO cells co-culture). It counts as cell-based. The following applies: for Emax: Jurkat, maximum NFAT-activation level relative to the positive control (10 nM Atezolizumab); for EC50: co-culture 6 hrs at 37° C., luciferase. The procedure:
Blocking the PD-1/PD-L1 interaction will release the inhibitory signal and results in TCR signaling and NFAT-mediated luciferase activity.
CHO cells expressing surface-bound anti-CD3 antibodies and PD-L1 were first seeded overnight and treated with the compounds. Jurkat cells overexpressing PD-1 and a luciferase construct under NF-AT promoter were then immediately seeded on the monolayer of CHO cells. The co-culture was then incubated for 6 hrs at 37° C. Luciferase activity was assessed by adding the ONE-Glo reagent and measuring luminescence with a plate reader. EC50s values were determined from the fit of the dose-response curves Emax (%) corresponds to the maximum NFAT-activation level reached by a given compound relative to the positive control (10 nM Atezolizumab).
(In general: A reporter such as luciferase makes a cellular process visible.)

PDL1/PD1, sequence (Q9NZQ7 19-238): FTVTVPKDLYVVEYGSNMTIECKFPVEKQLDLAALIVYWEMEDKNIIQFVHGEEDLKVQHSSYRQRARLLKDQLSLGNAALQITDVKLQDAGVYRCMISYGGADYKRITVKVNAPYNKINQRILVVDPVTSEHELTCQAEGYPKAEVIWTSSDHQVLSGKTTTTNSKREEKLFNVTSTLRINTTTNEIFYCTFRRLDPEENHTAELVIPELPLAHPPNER
PD-1/PD-L1 interaction, sequence (Q9NZQ7 19-290): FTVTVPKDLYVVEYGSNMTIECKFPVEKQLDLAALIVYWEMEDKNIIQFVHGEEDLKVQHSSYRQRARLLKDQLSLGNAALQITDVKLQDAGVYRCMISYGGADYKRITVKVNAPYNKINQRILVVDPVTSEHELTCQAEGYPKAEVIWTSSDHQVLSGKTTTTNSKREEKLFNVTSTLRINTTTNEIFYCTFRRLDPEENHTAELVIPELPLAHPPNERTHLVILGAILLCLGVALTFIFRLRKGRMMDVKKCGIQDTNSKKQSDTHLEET

As for `CCOC(=O)CN[C@@H]1CCc2cc(-c3cccc(-c4cccc(-c5cnc(CN6CC7(CCC(=O)N7)C6)c(OC)n5)c4Cl)c3Cl)cc(OC)c21` (single isomer, unassigned) [Compound A-2], the IC50 at PDL1/PD1 was no more than 10 nM. At PD-1/PD-L1 interaction, the Emax (as a rule, the size of the effect at its maximum, as opposed to the concentration needed) stood at 85% and the EC50 (as a rule, the concentration at which the effect is half-maximal) lay in the range of 100 to 1000 nM.

Turning to `CCOC(=O)C1CN([C@H]2CCc3cc(-c4cccc(-c5cccc(-c6cnc(CN7CC8(CCC(=O)N8)C7)c(OC)n6)c5Cl)c4Cl)cc(OC)c32)C1` (single isomer, unassigned) [Compound A-3], the IC50 at PDL1/PD1 was no more than 10 nM. Further, at PD-1/PD-L1 interaction, the Emax was found to be 84% and the EC50 was 100 to 1000 nM.

For the molecule `CCOC(=O)C1CN([C@@H]2CCc3cc(-c4cccc(-c5cccc(-c6cnc(CN7CC8(CCC(=O)N8)C7)c(OC)n6)c5Cl)c4Cl)cc(OC)c32)C1` (single isomer, unassigned) [Compound A-4], on PDL1/PD1, the IC50 was no more than 10 nM. This molecule returned an Emax on PD-1/PD-L1 interaction of 18%.

Take `COc1cc(-c2cccc(-c3cccc(-c4cnc(CN5CC6(CCC(=O)N6)C5)c(OC)n4)c3Cl)c2Cl)cc2c1[C@@H](N1CC(O)C1)CC2` (single isomer, unassigned) [Compound A-5]: the IC50 on PDL1/PD1 is no more than 10 nM. For the same molecule, on PD-1/PD-L1 interaction, the Emax came to 102% and the EC50 fell in the range of 100 to 1000 nM.

Take `COc1cc(-c2cccc(-c3cccc(-c4cnc(CN5CC6(CCC(=O)N6)C5)c(OC)n4)c3Cl)c2Cl)cc2c1[C@H](N1CC(O)C1)CC2` (single isomer, unassigned) [Compound A-6]: the IC50 on PDL1/PD1 is no more than 10 nM. The Emax at PD-1/PD-L1 interaction turned out to be 32%.

With `COc1cc(-c2cccc(-c3cccc(-c4cnc(CN5CC6(CCC(=O)N6)C5)c(OC)n4)c3Cl)c2Cl)cc2c1[C@@H](N1CC3(CCC(=O)N3)C1)CC2` (single isomer, unassigned) [Compound A-7], the IC50 on PDL1/PD1 was no more than 10 nM. This molecule also returned an Emax at PD-1/PD-L1 interaction of 24%.

As to `COc1cc(-c2cccc(-c3cccc(-c4cnc(CN5CC6(CCC(=O)N6)C5)c(OC)n4)c3Cl)c2Cl)cc2c1C[C@@H](N1CC(O)C1)C2` (single isomer, unassigned) [Compound A-10], the IC50 at PDL1/PD1 is no more than 10 nM. On PD-1/PD-L1 interaction, this molecule had an Emax of 172% and an EC50 of 10 to 100 nM.

Take `COc1cc(-c2cccc(-c3cccc(-c4cnc(CN5CC6(CCC(=O)N6)C5)c(OC)n4)c3Cl)c2Cl)cc2c1C[C@H](N1CC(O)C1)C2` (single isomer, unassigned) [Compound A-11]: on PDL1/PD1, the IC50 was no more than 10 nM. For the same molecule, on PD-1/PD-L1 interaction, the Emax worked out at 84% and the EC50 fell in the range of 1000 to 10000 nM.

On to `COc1cc(-c2cccc(-c3cccc(-c4cnc(CN5CC6(CCC(=O)N6)C5)c(OC)n4)c3Cl)c2Cl)cc2c1C[C@@H](N1CC3(CCC(=O)N3)C1)C2` (single isomer, unassigned) [Compound A-12], for which the IC50 on PDL1/PD1 was no more than 10 nM. At PD-1/PD-L1 interaction, this molecule showed an Emax of 191% and an EC50 of 10 to 100 nM.

As to `COc1cc(-c2cccc(-c3cccc(-c4cnc(CN5CC6(CCC(=O)N6)C5)c(OC)n4)c3Cl)c2Cl)cc2c1C[C@H](N1CC3(CCC(=O)N3)C1)C2` (single isomer, unassigned) [Compound A-13], the IC50 on PDL1/PD1 was no more than 10 nM. Further, on PD-1/PD-L1 interaction, the Emax worked out at 58% and the EC50 was 1000 to 10000 nM.

`COc1cc(-c2cccc(-c3cccc(-c4cnc(CN5CC6(CCC(=O)N6)C5)c(OC)n4)c3Cl)c2Cl)cc2c1[C@@H](N1CC(C(=O)O)C1)CC2` (single isomer, unassigned) [Compound B-3]: the IC50 on PDL1/PD1 was no more than 10 nM. At PD-1/PD-L1 interaction, this molecule returned a maximal effect (Emax) of 112% and an EC50 of 100 to 1000 nM.

Regarding `COc1cc(-c2cccc(-c3cccc(-c4cnc(CN5CC6(CCC(=O)N6)C5)c(OC)n4)c3Cl)c2Cl)cc2c1[C@H](N1CC(C(=O)O)C1)CC2` (single isomer, unassigned) [Compound B-4], the IC50 on PDL1/PD1 is no more than 10 nM. At PD-1/PD-L1 interaction, this molecule registered an Emax of 65% and an EC50 of 1000 to 10000 nM.

On to `COc1nc(-c2cccc(-c3cccc(-c4cc5c(c(OC)n4)[C@@H](N4CC6(CCC(=O)N6)C4)CC5)c3Cl)c2Cl)cnc1CN1CC2(CCC(=O)N2)C1` (single isomer, unassigned) [Compound C-3], for which the IC50 at PDL1/PD1 is no more than 10 nM. Moreover, the EC50 at PD-1/PD-L1 interaction was no more than 10 nM.

On to `COc1nc(-c2cccc(-c3cccc(-c4cc5c(c(OC)n4)[C@H](N4CC6(CCC(=O)N6)C4)CC5)c3Cl)c2Cl)cnc1CN1CC2(CCC(=O)N2)C1` (single isomer, unassigned) [Compound C-4], for which, at PDL1/PD1, the IC50 is no more than 10 nM. The EC50 on PD-1/PD-L1 interaction was greater than 10000 nM.

Regarding `COc1nc(-c2cccc(-c3cccc(-c4cc5c(c(OC)n4)[C@@H](N4CC(O)C4)CC5)c3Cl)c2Cl)cnc1CN1CC2(CCC(=O)N2)C1` (single isomer, unassigned) [Compound C-5], the IC50 on PDL1/PD1 was no more than 10 nM. The molecule also showed an EC50 on PD-1/PD-L1 interaction of no more than 10 nM.

For the molecule `COc1nc(-c2cccc(-c3cccc(-c4cc5c(c(OC)n4)[C@@H](N4CC6(CN(C(C)=O)C6)C4)CC5)c3Cl)c2Cl)cnc1CNC[C@@H]1CCC(=O)N1` (single isomer, unassigned) [Compound D-16], on PDL1/PD1, the IC50 is no more than 10 nM.

For `COc1nc(-c2cccc(-c3cccc(-c4cc5c(c(OC)n4)[C@H](NC[C@@H]4CCC(=O)N4)CO5)c3Cl)c2Cl)cc(C)c1CN1CC2(C1)CN(C(C)=O)C2` (single isomer, unassigned) [Compound E-5], the IC50 on PDL1/PD1 is no more than 10 nM.

For the molecule `CCOC(=O)C1CN([C@@H]2CCc3cc(-c4cccc(-c5cccc(-c6cnc(CN7CC(O)C7)c(OC)n6)c5Cl)c4Cl)nc(OC)c32)C1` (single isomer, unassigned) [Compound G-2], the IC50 on PDL1/PD1 was no more than 10 nM.

With `CCOC(=O)C1CN([C@H]2CCc3cc(-c4cccc(-c5cccc(-c6cnc(CN7C[C@@H](O)[C@@H]7C)c(OC)n6)c5Cl)c4Cl)nc(OC)c32)C1` (single isomer, unassigned) [Compound G-3], the EC50 at PD-1/PD-L1 interaction was greater than 10000 nM.

As to `CCOC(=O)C1CN([C@@H]2CCc3cc(-c4cccc(-c5cccc(-c6cnc(CN7C[C@@H](O)[C@@H]7C)c(OC)n6)c5Cl)c4Cl)nc(OC)c32)C1` (single isomer, unassigned) [Compound G-4], the EC50 at PD-1/PD-L1 interaction was in the range of 1000 to 10000 nM.

As to `COc1nc(-c2cccc(-c3cccc(-c4cc5c(c(OC)n4)[C@@H](NC[C@@H]4CCC(=O)N4)CC5)c3Cl)c2Cl)cnc1CN1CC2(CCC(=O)N2)C1` [Compound C-1], at PD-1/PD-L1 interaction, the EC50 is no more than 10 nM.

As for `COc1nc(-c2cccc(-c3cccc(-c4cc5c(c(OCC(C)C)n4)C(NC[C@@H]4CCC(=O)N4)CC5)c3Cl)c2Cl)cnc1CN1CC2(CCC(=O)N2)C1` (stereo partly shown) [Compound C-13], the half-maximal effective concentration (EC50) at PD-1/PD-L1 interaction lay within 10 to 100 nM.

Turning to `COc1nc(-c2cccc(-c3cccc(-c4cc5c(c(OC)n4)[C@@H](NC[C@@H]4CCC(=O)N4)CC5)c3Cl)c2Cl)cnc1CN1CC2(C1)CN(C(C)=O)C2` [Compound D-1], at PD-1/PD-L1 interaction, the EC50 is no more than 10 nM.

Take `COc1nc(-c2cccc(-c3cccc(-c4cc5c(c(OC)n4)[C@H](NC[C@@H]4CCC(=O)N4)CC5)c3Cl)c2Cl)cnc1CN1CCCC1` [Compound D-12]: the IC50 at PDL1/PD1 was no more than 10 nM.

`COc1nc(-c2cccc(-c3cccc(-c4cc5c(c(OC)n4)[C@@H](NC[C@@H]4CCC(=O)N4)CC5)c3Cl)c2Cl)ccc1CNC[C@@H]1CCC(=O)N1` [Compound E-1] gave an EC50 on PD-1/PD-L1 interaction of no more than 10 nM.

The molecule `COc1nc(-c2cccc(-c3cccc(-c4cc5c(c(OC)n4)[C@@H](NC[C@@H]4CCC(=O)N4)CC5)c3Cl)c2Cl)cc(C)c1CN1CC2(C1)CN(C(C)=O)C2` [Compound E-2] gave an EC50 at PD-1/PD-L1 interaction of no more than 10 nM.

Molecule `COc1nc(-c2cccc(-c3cccc(-c4cc5c(c(OC)n4)C(N4CCC[C@@H](C(=O)O)C4)CC5)c3Cl)c2Cl)cnc1CN1CC(O)C1` (stereo partly shown) [Compound F-1] returned an EC50 at PD-1/PD-L1 interaction of 10 to 100 nM.

Take `CCOC(=O)C1CN([C@H]2CCc3cc(-c4cccc(-c5cccc(-c6cnc(CN7CC(O)C7)c(OC)n6)c5Cl)c4Cl)nc(OC)c32)C1` [Compound G-1]: the EC50 on PD-1/PD-L1 interaction lay in the range of 10 to 100 nM.

As for `COc1nc(-c2cccc(-c3cccc(-c4cc5c(c(OC)n4)[C@@H](N4CC(C(=O)O)C4)CC5)c3Cl)c2Cl)cnc1CN1CC(O)C1` [Compound H-1], the EC50 at PD-1/PD-L1 interaction was 10 to 100 nM.

The molecule `CCOC(=O)CN1CCc2c(cc(-c3cccc(-c4cccc(-c5cnc(CN6CC(O)C6)c(OC)n5)c4Cl)c3Cl)nc2OC)C1` [Compound I-1] registered an EC50 at PD-1/PD-L1 interaction of 100 to 1000 nM.

`CCOC(=O)CN1CCc2c(cc(-c3cccc(-c4cccc(-c5cnc(CN6CC(O)(C(F)(F)F)C6)c(OC)n5)c4Cl)c3Cl)nc2OC)C1` [Compound I-3] yielded an EC50 on PD-1/PD-L1 interaction of 1000 to 10000 nM.

On PD-1/PD-L1 interaction, `COc1nc(-c2cccc(-c3cccc(-c4cc5c(c(OC)n4)CCN(CC(=O)O)C5)c3Cl)c2Cl)cnc1CN1CC(O)C1` [Compound J-1] yielded an EC50 of 10 to 100 nM.

For `COc1nc(-c2cccc(-c3cccc(-c4cc5c(c(OC)n4)CCN(C[C@@H]4CCC(=O)N4)C5)c3Cl)c2Cl)cnc1CN1CC2(CCC(=O)N2)C1` [Compound K-1], the EC50 at PD-1/PD-L1 interaction was in the range of 10 to 100 nM.

As to `COCCN1CCc2c(cc(-c3cccc(-c4cccc(-c5cnc(CN6CC7(CCC(=O)N7)C6)c(OC)n5)c4Cl)c3Cl)nc2OC)C1` [Compound K-2], the EC50 on PD-1/PD-L1 interaction lay within 10 to 100 nM.
